Measured values reported in US7666873B2, “N-phenyl-(2R,5S)dimethylpiperazine derivative” (Astellas Pharma Inc., priority 2002, dated 2010).
Structures can show the parent of a compound that is named as a salt. Where two headings read alike, the source gives them in different places.

Columns and labels:
[1] = target: T1, human androgen receptor (Homo sapiens, UniProt P10275); test: Transcription activating action toward human androgen receptor (agonistic action), MMTV luciferase reporter in CHO cells; assay type: cell-based; details: ratio to transcription activity induced by 1 nM DHT; CHO/MMTV and CHO/SV40 stable transformants
T1 construct: expressed in transfected cells
T1 sequence (P10275 1-920): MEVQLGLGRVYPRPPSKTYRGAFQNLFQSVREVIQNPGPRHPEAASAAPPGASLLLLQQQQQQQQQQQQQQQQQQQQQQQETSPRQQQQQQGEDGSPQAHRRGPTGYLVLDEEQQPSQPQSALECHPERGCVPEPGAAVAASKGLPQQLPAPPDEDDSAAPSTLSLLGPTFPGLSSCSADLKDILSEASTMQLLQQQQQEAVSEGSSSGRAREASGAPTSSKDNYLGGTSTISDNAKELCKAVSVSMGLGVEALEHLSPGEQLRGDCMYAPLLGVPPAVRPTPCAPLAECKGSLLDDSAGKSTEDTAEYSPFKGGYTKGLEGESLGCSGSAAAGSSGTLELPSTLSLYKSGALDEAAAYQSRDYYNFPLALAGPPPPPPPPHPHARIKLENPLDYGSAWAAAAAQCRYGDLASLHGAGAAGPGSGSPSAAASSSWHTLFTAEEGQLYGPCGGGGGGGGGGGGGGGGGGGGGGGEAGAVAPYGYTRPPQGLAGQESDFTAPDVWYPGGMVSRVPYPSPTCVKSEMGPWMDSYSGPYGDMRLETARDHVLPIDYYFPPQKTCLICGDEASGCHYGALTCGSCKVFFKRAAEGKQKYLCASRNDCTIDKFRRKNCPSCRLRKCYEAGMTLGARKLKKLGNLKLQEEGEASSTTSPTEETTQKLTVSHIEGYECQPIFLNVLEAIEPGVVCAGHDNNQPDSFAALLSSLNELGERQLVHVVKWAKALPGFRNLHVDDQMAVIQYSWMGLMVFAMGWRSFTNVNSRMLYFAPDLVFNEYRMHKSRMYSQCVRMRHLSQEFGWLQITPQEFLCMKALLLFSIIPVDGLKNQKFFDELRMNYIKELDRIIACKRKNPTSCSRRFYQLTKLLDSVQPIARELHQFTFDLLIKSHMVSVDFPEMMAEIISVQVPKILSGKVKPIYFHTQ
Description: 1. Transcription Activation Regulatory Action Toward Human Androgen Receptor
Acquisition of Human Androgen Receptor-Expressing, Stable Transformant of MMTV Reporter Gene, and Stable Transformant of SV40 Reporter Gene
CHO cells were seeded on a dish for cell culture having a diameter of 100 mm in an amount of 1×10^6 cells. After 12 to 18 hours, a human androgen receptor-expressing plasmid, MMTV-LTR luciferase reporter plasmid (also inclusive of neomycin resistant gene) co-precipitated with calcium phosphate was added thereto to effect transfection. […]
CHO/MMTV stable transformant cells and CHO/SV40 stable transformant cells were each seeded to a 96-well luminoplate for cell culture in an amount of 2×10^4 cells/well. […] Then, emitted light intensity was measured by means of a luminometer, the intensity being regarded as luciferase activity obtained by MMTV-LTR transcription activation due to human androgen receptor and nonspecific activation of SV40 promoter transcription.
The transcription activating action of the compound of the present invention was calculated according to the following equation as a ratio to the transcription activity induced by 1 nM DHT. […]

[2] = target: T1, human androgen receptor; test: Transcription activation inhibitory action toward human androgen receptor (antagonistic action), MMTV luciferase reporter in CHO cells; assay type: cell-based
Description: b) Evaluation of Transcription Activation Inhibitory Action Toward Human Androgen Receptor (Antagonistic Action)
CHO/MMTV stable transformant cells and CHO/SV40 stable transformant cells were each inoculated to a 96-well luminoplate for cell culture in an amount of 2×10^4 cells. After 6 to 8 hours, each of the compounds of the present invention was added together with DHT (final concentration of 0.3 nM). After about 18 hours from the addition of the compound, 20 μl of a solution containing 1% triton-X and 10% glycerin was added thereto to dissolve the cells and 100 μl of a luciferase substrate solution containing 0.47 mM luciferin was further added thereto. Then, emitted light intensity was measured using a luminometer, the intensity being regarded as luciferase activity obtained by MMTV-LTR transcription activation due to androgen receptor and nonspecific activation of SV40 promoter transcription.
The transcription activation inhibitory action of the compound of the present invention was calculated according to the following equation as an inhibitory ratio to the transcription activity induced by 0.3 nM DHT. Inhibitory ratio (%)=100(I′−X′)/(I′−B)
I′: (MMTV luciferase activity)/(SV40 luciferase activity) in the case that 0.3 nM DHT is only added
B: (MMTV luciferase activity)/(SV40 luciferase activity) without treatment
X′: (MMTV luciferase activity)/(SV40 luciferase activity) in the case that the compound of the present invention is added together with 0.3 nM DHT
IC50 was determined from the concentration of the compound of the present invention at which the inhibitory ratio calculated by the above method reached 50%.

[3] = tested on: ventral prostate of mature male rat; test: Prostate gland reducing action toward mature male rat; assay type: in vivo; details: 360 h; oral, once a day for 15 days, male Wistar rat, ventral prostate wet weight, linear regression
Description: 3. Prostate Gland Reducing Action Toward Mature Male Rat
To a male 9-10 weeks old Wistar rat, the compound of the present invention suspended in a 0.5% methylcellulose solution was orally administered once a day continuously for 15 days. After 6 hours from the final administration, the wet weight of its ventral prostate was measured and a prostate gland reducing of the compound of the present invention was investigated.
The prostate gland reducing of the compound of the present invention was calculated according to the following formula using a group to which the compound of the present invention was administered as a test group and a group to which only methylcellulose was administered as a control group. Lessening ratio (%)=100(B−A)/B
A: Wet weight of ventral prostate in test group
B: Wet weight of ventral prostate in control group
From the lessening ratio determined in the above, an ED50 value was calculated by the linear regression method.

Row | SMILES | IC50 [2] | ED50 [3] | also measured
1 | C[C@@H]1CN(c2ccc(C#N)c(Br)c2)[C@@H](C)CN1C(=O)Nc1ccc(C(F)(F)F)nc1 (as salt: salt) [Example 3-23, (2R,5S)-4-(3-bromo-4-cyanophenyl)-2,5-dimethyl-N-(6-trifluoromethyl-3-pyridyl)piperazine-1-carboxamide] |  |  | melting point: 216 to 218 °C
2 | COc1cc(N2C[C@@H](C)N(C(=O)Nc3ccc(C(F)(F)F)nc3)C[C@@H]2C)ccc1C#N (as salt: salt) [Example 3-15, (2R,5S)-4-(4-cyano-3-methoxyphenyl)-2,5-dimethyl-N-(6-trifluoromethyl-3-pyridyl)piperazine-1-carboxamide] |  |  | melting point: 211 to 212 °C
3 | C[C@@H]1CN(c2ccc(C#N)c(Cl)c2)[C@@H](C)CN1C(=O)Nc1ccc(C#N)nc1 [Example 3-12, (2R,5S)-4-(3-chloro-4-cyanophenyl)-N-(6-cyano-3-pyridyl)-2,5-dimethylpiperazine-1-carboxamide] | 40 nM | 1.7 mg/kg | agonistic induction ratio [1]: ≤ 1%
4 | COc1cc(N2C[C@@H](C)N(C(=O)Nc3ccc(C(F)(F)F)nc3)C[C@@H]2C)ccc1C#N [Example 3-15, (2R,5S)-4-(4-cyano-3-methoxyphenyl)-2,5-dimethyl-N-(6-trifluoromethyl-3-pyridyl)piperazine-1-carboxamide] |  | 4.1 mg/kg | IC50 ([2]; against 0.3 nM DHT, CHO/MMTV and CHO/SV40 stable transformants, read-out: Transcription activation inhibitory action (IC50 nM)): 130 nM
5 | C[C@@H]1CN(c2ccc(C#N)c(Br)c2)[C@@H](C)CN1C(=O)Nc1ccc(C(F)(F)F)nc1 [Example 3-23, (2R,5S)-4-(3-bromo-4-cyanophenyl)-2,5-dimethyl-N-(6-trifluoromethyl-3-pyridyl)piperazine-1-carboxamide] | 53 nM | 1.1 mg/kg | 
6 | C[C@@H]1CN(c2ccc(C#N)c(Cl)c2)[C@@H](C)CN1C(=O)Nc1cnc(C2CC2)nc1 [Example 3-9, (2R,5S)-4-(3-chloro-4-cyanophenyl)-N-(2-cyclopropylpyrimidin-5-yl)-2,5-dimethylpiperazine-1-carboxamide] |  | 4.5 mg/kg | 
7 | C[C@@H]1CN(c2ccc(C#N)c(C(F)(F)F)c2)[C@@H](C)CN1C(=O)Nc1cnc(C2CC2)nc1 [Example 3-30, (2R,5S)-4-(4-cyano-3-trifluoromethylphenyl)-N-(2-cyclopropylpyrimidin-5-yl)-2,5-dimethylpiperazine-1-carboxamide] | 68 nM | 3.9 mg/kg | 
